Experimental data from patent US9273033B2, “Substituted pyridone derivatives as PDE10 inhibitors” (Merck Sharp & Dohme Corp., priority 2012, dated 2016).

Biological target: human PDE10A2 (Homo sapiens (Human), UniProt Q9Y233)
Assay: PDE10 fluorescence polarization (IMAP FP) inhibition assay
Format: biochemical
Conditions: human PDE10A2, FAM-labeled cAMP substrate, read-out: PDE10A Ki
Procedure: The activity of the compounds in accordance with the present invention as PDE10 inhibitors may be readily determined without undue experimentation using a fluorescence polarization (FP) methodology that is well known in the art (Huang, W., et al., J. Biomol Screen, 2002, 7: 215).
In a typical experiment the PDE10 inhibitory activity of the compounds of the present invention was determined in accordance with the following experimental method. PDE10A2 was amplified from human fetal brain cDNA (Clontech, Mountain View, Calif.) using a forward primer corresponding to nucleotides 56-77 of human PDE10A2 (Accession No. AF127480, Genbank Identifier 4894716), containing a Kozak consensus sequence, and a reverse primer corresponding to nucleotides 2406-2413 of human PDE10A2 (Accession No. AF127480, Genbank Identifier 4894716). Amplification with Easy-A polymerase (Stratagene, La Jolla, Calif.) was 95° C. for 2 minutes followed by thirty three cycles of 95° C. for 40 seconds, 55° C. for 30 seconds, and 72° C. for 2 minutes 48 seconds. Final extension was 72° C. for 7 minutes. The PCR product was TA cloned into pcDNA3.2-TOPO (Invitrogen, Carlsbad, Calif.) according to standard protocol. AD293 cells with 70-80% confluency were transiently transfected with human PDE10A2/pcDNA3.2-TOPO using Lipofectamine 2000 according to manufacturer specifications (Invitrogen, Carlsbad, Calif.). Cells were harvested 48 hours post-transfection and lysed by sonication (setting 3, 10×5 sec pulses) in a buffer containing 20 mM HEPES, 1 mM EDTA and protease inhibitor cocktail (Roche). Lysate was collected by centrifugation at 75,000×g for 20 minutes. Supernatant containing the cytoplasmic fraction was used for evaluation of PDE10A2 activity. The fluorescence polarization assay for cyclic nucleotide phosphodiesterases was performed using an IMAP® FP kit supplied by Molecular Devices, Sunnyvale, Calif. (product # R8139). IMAPU technology has been applied previously to phosphodiesterase assays (Huang, W., et al., J. Biomol Screen, 2002, 7: 215). Assays were performed at room temperature in 384-well microtiter plates with an incubation volume of 20.2 μL. Solutions of test compounds were prepared in DMSO and serially diluted with DMSO to yield 8 μL of each of 10 solutions differing by 3-fold in concentration, at 32 serial dilutions per plate. 100% inhibition is determined using a known PDE10 inhibitor, which can be any compound that is present at 5,000 times its Ki value in the assay described as follows, such as papaverine (see Siuciak, et al. Neuropharmacology (2006) 51:386-396; Becker, et al. Behav Brain Res (2008) 186(2):155-60; Threlfell, et al., J Pharmacol Exp Ther (2009) 328(3):785-795), 2-{4-[pyridin-4-yl-1-(2,2,2-trifluoroethyl)-1H-pyrazol-3-yl]phenoxymethyl}quinoline succinic acid or 2-[4-(1-methyl-4-pyridin-4-yl-1H-pyrazol-3-yl)-phenoxymethyl]quinoline succinic acid (see Schmidt, et al. J Pharmacol Exp Ther (2008) 325:681-690; Threlfell, et al., J Pharmacol Exp Ther (2009) 328(3): 785-795). 0% of inhibition is determined by using DMSO (1% final concentrations).
A Labcyte Echo 555 (Labcyte, Sunnyvale, Calif.) is used to dispense 200 nL from each well of the titration plate to the 384 well assay plate. A solution of enzyme (1/1600 dilution from aliquots; sufficient to produce 20% substrate conversion) and a separate solution of FAM-labeled cAMP PDE from Molecular Devices (product # R7506), at a final concentration of 50 nM are made in the assay buffer (10 mM Tris HCl, pH 7.2, 10 mM MgCl2, 0.05% NaN3 0.01% Tween-20, and 1 mM DTT). The enzyme and the substrate are then added to the assay plates in two consecutive additions of 10 μL, and then shaken to mix. The reaction is allowed to proceed at room temperature for 30 minutes. A binding solution is then made from the kit components, comprised of 80% Solution A, 20% Solution B and binding reagent at a volume of 1/600 the total binding solution.

Sequence of human PDE10A2 (Q9Y233 267-1055): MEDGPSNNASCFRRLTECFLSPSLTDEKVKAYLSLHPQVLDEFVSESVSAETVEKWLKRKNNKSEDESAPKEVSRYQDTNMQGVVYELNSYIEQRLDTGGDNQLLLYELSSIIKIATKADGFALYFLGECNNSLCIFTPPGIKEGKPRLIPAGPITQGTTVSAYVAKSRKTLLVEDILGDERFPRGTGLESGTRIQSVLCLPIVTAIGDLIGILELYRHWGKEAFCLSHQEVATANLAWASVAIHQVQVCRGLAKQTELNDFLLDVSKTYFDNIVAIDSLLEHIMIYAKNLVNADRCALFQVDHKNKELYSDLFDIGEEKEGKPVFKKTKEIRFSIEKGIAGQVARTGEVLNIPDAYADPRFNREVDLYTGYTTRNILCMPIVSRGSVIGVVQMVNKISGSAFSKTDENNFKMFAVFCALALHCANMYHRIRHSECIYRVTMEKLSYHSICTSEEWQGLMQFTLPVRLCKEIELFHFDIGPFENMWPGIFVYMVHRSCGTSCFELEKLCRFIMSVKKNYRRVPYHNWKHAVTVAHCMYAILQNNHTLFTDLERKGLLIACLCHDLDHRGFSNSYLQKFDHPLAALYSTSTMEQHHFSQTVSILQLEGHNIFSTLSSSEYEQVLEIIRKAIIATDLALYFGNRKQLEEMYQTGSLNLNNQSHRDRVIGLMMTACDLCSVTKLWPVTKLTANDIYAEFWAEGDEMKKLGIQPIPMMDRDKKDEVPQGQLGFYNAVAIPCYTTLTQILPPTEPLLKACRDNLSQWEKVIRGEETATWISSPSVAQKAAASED

SMILES	Ki
COc1ccc([C@H]2C[C@@H]2COc2nc(C)ncc2-c2ccc(=O)n(OC)c2)nc1 [Example 22, 1-methoxy-5-(4-(((1S,2S)-2-(5-methoxypyridin-2-yl)cyclopropyl)methoxy)-2-methylpyrimidin-5-yl)pyridin-2(1H)-one]	1.9 nM
Cc1ccc([C@H]2C[C@@H]2COc2nc(C)ncc2-c2cc(F)c(=O)n(C)c2)nc1 [Example 25, 3-fluoro-1-methyl-5-(2-methyl-4-(((1S,2S)-2-(5-methylpyridin-2-yl)cyclopropyl)methoxy)pyrimidin-5-yl)pyridin-2(1H)-one]	1.55 nM
COc1ccc([C@H]2C[C@@H]2COc2nc(C)ncc2-c2ccc(=O)n(C)c2C)nc1 [Example 27, 5-(4-(((1S,2S)-2-(5-methoxypyridin-2-yl)cyclopropyl)methoxy)-2-methylpyrimidin-5-yl)-1,6-dimethylpyridin-2(1H)-one]	0.113 nM
Cc1ccc([C@H]2C[C@@H]2COc2nc(C)ncc2-c2ccc(=O)n(C)c2)nc1 [Example 28, 1-methyl-5-(2-methyl-4-(((1S,2S)-2-(5-methylpyridin-2-yl)cyclopropyl)methoxy)pyrimidin-5-yl)pyridin-2(1H)-one]	2.04 nM
COCCn1c(C)c(-c2cnc(C)nc2OC[C@H]2C[C@@H]2c2ccc(OC)cn2)ccc1=O [Example 30, 1-(2-methoxyethyl)-5-(4-(((1S,2S)-2-(5-methoxypyridin-2-yl)cyclopropyl)methoxy)-2-methylpyrimidin-5-yl)-6-methylpyridin-2(1H)-one]	1.46 nM
CCn1cc(-c2cnc(C)nc2OC[C@H]2C[C@@H]2c2ccc3ccccc3n2)ccc1=O [Example 32, 1-ethyl-5-(2-methyl-4-(((1S,2S)-2-(quinolin-2-yl)cyclopropyl)methoxy)pyrimidin-5-yl)pyridin-2(1H)-one]	0.024 nM
CCn1cc(-c2cnc(C)nc2OC[C@H]2C[C@@H]2c2ccc(OC)cn2)cc(C)c1=O [Example 35, 1-ethyl-5-(4-(((1S,2S)-2-(5-methoxypyridin-2-yl)cyclopropyl)methoxy)-2-methylpyrimidin-5-yl)-3-methylpyridin-2(1H)-one]	0.381 nM
COc1ccc([C@H]2C[C@@H]2COc2nc(C)ncc2-c2cc(C)c(=O)n(C)c2)nc1 [Example 38, 5-(4-(((1S,2S)-2-(5-methoxypyridin-2-yl)cyclopropyl)methoxy)-2-methylpyrimidin-5-yl)-1,3-dimethylpyridin-2(1H)-one]	0.727 nM
COCCn1cc(-c2cnc(C)nc2OC[C@H]2C[C@@H]2c2ccc(OC)cn2)ccc1=O [Example 39, 1-(2-methoxyethyl)-5-(4-(((1S,2S)-2-(5-methoxypyridin-2-yl)cyclopropyl)methoxy)-2-methylpyrimidin-5-yl)pyridin-2(1H)-one]	0.821 nM
Cc1ncc(-c2ccc(=O)n(C)c2)c(OC[C@H]2C[C@@H]2c2ccc3c(n2)CCC3)n1 [Example 42, 5-(4-(((1S,2S)-2-(6,7-dihydro-5H-cyclopenta[b]pyridin-2-yl)cyclopropyl)methoxy)-2-methylpyrimidin-5-yl)-1-methylpyridin-2(1H)-one]	0.531 nM
Cc1ccc([C@H]2C[C@@H]2COc2nc(C)ncc2-c2ccc(=O)n(CCC#N)c2)nc1 [Example 46, 3-(5-(2-methyl-4-(((1S,2S)-2-(5-methylpyridin-2-yl)cyclopropyl)methoxy)pyrimidin-5-yl)-2-oxopyridin-1(2H)-yl)propanenitrile]	2.15 nM

More lines, in order of falling Ki, values ahead:

Ki	SMILES
4.27 nM	Cc1ccc([C@H]2C[C@@H]2COc2nc(C)ncc2-c2ccc(=O)n(C(C)C)c2C)nc1 [Example 37, 1-isopropyl-6-methyl-5-(2-methyl-4-(((1S,2S)-2-(5-methylpyridin-2-yl)cyclopropyl)methoxy)pyrimidin-5-yl)pyridin-2(1H)-one]
2.56 nM	Cc1ccc([C@H]2C[C@@H]2COc2nc(C)ncc2-c2ccc(=O)n(CC(F)F)c2)nc1 [Example 43, 1-(2,2-difluoroethyl)-5-(2-methyl-4-(((1S,2S)-2-(5-methylpyridin-2-yl)cyclopropyl)methoxy)pyrimidin-5-yl)pyridin-2(1H)-one]
2.3 nM	COc1ccc([C@H]2C[C@@H]2COc2nc(C)ncc2-c2ccc(=O)n(CC(F)F)c2)nc1 [Example 44, 1-(2,2-difluoroethyl)-5-(4-(((1S,2S)-2-(5-methoxypyridin-2-yl)cyclopropyl)methoxy)-2-methylpyrimidin-5-yl)pyridin-2(1H)-one]
1.78 nM	CCn1c(C)c(-c2cnc(C)nc2OC[C@H]2C[C@@H]2c2ccc(OC)cn2)ccc1=O [Example 33, 1-ethyl-5-(4-(((1S,2S)-2-(5-methoxypyridin-2-yl)cyclopropyl)methoxy)-2-methylpyrimidin-5-yl)-6-methylpyridin-2(1H)-one]
1.78 nM	COc1ccc([C@H]2C[C@@H]2COc2nc(C)ncc2-c2ccc(=O)n(CCC#N)c2)nc1 [Example 45, 3-(5-(4-(((1S,2S)-2-(5-methoxypyridin-2-yl)cyclopropyl)methoxy)-2-methylpyrimidin-5-yl)-2-oxopyridin-1(2H)-yl)propanenitrile]
1.07 nM	CCn1cc(-c2cnc(C)nc2OC[C@H]2C[C@@H]2c2ccc(OC)cn2)ccc1=O [Example 24, 1-ethyl-5-(4-(((1S,2S)-2-(5-methoxypyridin-2-yl)cyclopropyl)methoxy)-2-methylpyrimidin-5-yl)pyridin-2(1H)-one]
0.533 nM	CCn1cc(-c2cnc(C)nc2OC[C@H]2C[C@@H]2c2ccc(C)cn2)cc(C)c1=O [Example 41, 1-ethyl-3-methyl-5-(2-methyl-4-(((1S,2S)-2-(5-methylpyridin-2-yl)cyclopropyl)methoxy)pyrimidin-5-yl)pyridin-2(1H)-one]
0.519 nM	Cc1ccc([C@H]2C[C@@H]2COc2nc(C)ncc2-c2ccc(=O)n(C3CC3)c2)nc1 [Example 23, 1-cyclopropyl-5-(2-methyl-4-(((1S,2S)-2-(5-methylpyridin-2-yl)cyclopropyl)methoxy)pyrimidin-5-yl)pyridin-2(1H)-one]
0.409 nM	Cc1ccc([C@H]2C[C@@H]2COc2nc(C)ncc2-c2cc(C)c(=O)n(C)c2)nc1 [Example 40, 1,3-dimethyl-5-(2-methyl-4-(((1S,2S)-2-(5-methylpyridin-2-yl)cyclopropyl)methoxy)pyrimidin-5-yl)pyridin-2(1H)-one]
0.052 nM	Cc1ncc(-c2ccc(=O)n(C)c2)c(OC[C@H]2C[C@@H]2c2ccc3ccccc3n2)n1 [Example 29, 1-methyl-5-(2-methyl-4-(((1S,2S)-2-(quinolin-2-yl)cyclopropyl)methoxy)pyrimidin-5-yl)pyridin-2(1H)-one]
0.045 nM	COCCn1c(C)c(-c2cnc(C)nc2OC[C@H]2C[C@@H]2c2ccc3ccccc3n2)ccc1=O [Example 31, 1-(2-methoxyethyl)-6-methyl-5-(2-methyl-4-(((1S,2S)-2-(quinolin-2-yl)cyclopropyl)methoxy)pyrimidin-5-yl)pyridin-2(1H)-one]
0.045 nM	CCn1c(C)c(-c2cnc(C)nc2OC[C@H]2C[C@@H]2c2ccc3ccccc3n2)ccc1=O [Example 36, 1-ethyl-6-methyl-5-(2-methyl-4-(((1S,2S)-2-(quinolin-2-yl)cyclopropyl)methoxy)pyrimidin-5-yl)pyridin-2(1H)-one]
0.006 nM	Cc1ncc(-c2ccc(=O)n(C)c2C)c(OC[C@H]2C[C@@H]2c2ccc3ccccc3n2)n1 [Example 34, 1,6-dimethyl-5-(2-methyl-4-(((1S,2S)-2-(quinolin-2-yl)cyclopropyl)methoxy)pyrimidin-5-yl)pyridin-2(1H)-one]
